In patent publication US8404723B2, “3-cyano 5-thiazaheteroaryl-dihydropyridine and the use thereof for the treatment of cardiovascular diseases” (Bayer Intellectual Property GmbH, priority 2006, dated 2013) one finds IC50 data, which are given here for seven compounds.

pIC50: −log10 of the molar value.

The assay has as its target T1, human mineralocorticoid receptor (MR) (Homo sapiens, UniProt P08235).
T1 construct: expressed in transfected cells
T1 sequence (P08235 734-984 limits assumed): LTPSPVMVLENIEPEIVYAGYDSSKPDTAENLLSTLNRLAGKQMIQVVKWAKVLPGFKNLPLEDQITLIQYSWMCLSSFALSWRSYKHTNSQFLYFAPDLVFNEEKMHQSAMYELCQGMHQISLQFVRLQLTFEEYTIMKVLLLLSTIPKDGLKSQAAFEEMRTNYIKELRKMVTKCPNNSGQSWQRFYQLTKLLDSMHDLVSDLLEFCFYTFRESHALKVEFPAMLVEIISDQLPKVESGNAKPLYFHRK
Kind of assay: Cellular in vitro assay to determine the inhibitory MR activity (GAL4-MR chimera luciferase reporter in CHO K1 cells). The note with it: aldosterone as agonist. The class given is cell-based. From the text:
1. Cellular In Vitro Assay to Determine the Inhibitory MR Activity and MR Selectivity Compared with Other Steroid Hormone Receptors
Antagonists of the human mineralocorticoid receptor (MR) are identified, and the activity of the compounds described herein is quantified with the aid of a recombinant cell line. The cell is originally derived from a hamster ovary epithelial cell (Chinese Hamster Ovary, CHO K1, ATCC: American Type Culture Collection, Va. 20108, USA).
An established chimera system in which the ligand-binding domains of human steroid hormone receptors are fused to the DNA-binding domain of the yeast transcription factor GAL4 is used in this CHO K1 cell line. The GAL4-steroid hormone receptor chimeras produced in this way are cotransfected and stably expressed with a reporter construct in the CHO cells.
To generate the GAL4-steroid hormone receptor chimeras, the GAL4 DNA binding domain (amino acids 1-147) from the vector pFC2-dbd (from Stratagene) is cloned with the PCR-amplified ligand-binding domains of the mineralocorticoid receptor (MR, amino acids 734-985), of the glucocorticoid receptor (GR, amino acids 443-777), of the progesterone receptor (PR, amino acids 680-933) and of the androgen receptor (AR, amino acids 667-919) into the vector pIRES2 (from Clontech). The reporter construct, which comprises five copies of the GAL4 binding site upstream of a thymidine kinase promoter, leads to expression of firefly-luciferase (Photinus pyralis) after activation and binding of the GAL4-steroid hormone receptor chimeras by the respective specific agonists aldosterone (MR), dexamethasone (GR), progesterone (PR) and dihydrotestosterone (AR).
The MR, GR, PR and AR cells are plated out in medium (Optimem, 2.5% FCS, 2 mM glutamine, 10 mM HEPES) in 96- (or 384- or 1536-) well microtiter plates on the day before the assay and are kept in a cell incubator (96% humidity, 5% v/v CO2, 37° C.). On the day of the assay, the substances to be tested are taken up in the abovementioned medium and added to the cells. About 10 to 30 minutes after addition of the test substances, the respective specific agonists of the steroid hormone receptors are added. After a further incubation time of 5 to 6 hours, the luciferase activity is measured with the aid of a video camera. The measured relative light units as a function of the substance concentration result in a sigmoidal stimulation curve. The IC50 values are calculated with the aid of the GraphPad PRISM computer program (Version 3.02).
(A reporter such as luciferase makes a cellular process visible.)
In the case of `COc1cc(C#N)ccc1C1C(C#N)=C(C)NC(C)=C1c1nc(C)cs1` (stereo not shown) [Example 1, 4-(4-Cyano-2-methoxyphenyl)-2,6-dimethyl-5-(4-methyl-1,3-thiazol-2-yl)-1,4-dihydropyridine-3-carbonitrile], the negative logarithm of the IC50 (pIC50) – broadly, −log10 of the IC50, conventionally taken in molar units – is 7.03.
The result for `COc1cc(C#N)ccc1C1C(C#N)=C(C(F)(F)F)NC(C)=C1c1nc(C)cs1` (stereo not shown) [Example 3, 4-(4-Cyano-2-methoxyphenyl)-6-methyl-5-(4-methyl-1,3-thiazol-2-yl)-2-(trifluoromethyl)-1,4-dihydropyridine-3-carbonitrile] reads 8.00; that for `CC1=C(C#N)C(c2cccc3c(=O)cc(C)oc23)C(c2nc(C)cs2)=C(C)N1` (stereo not shown) [Example 4, 2,6-Dimethyl-4-(2-methyl-4-oxo-4H-chromen-8-yl)-5-(4-methyl-1,3-thiazol-2-yl)-1,4-dihydro-pyridine-3-carbonitrile], 7.02; that for `COc1cc(C#N)ccc1C1C(C#N)=C(C)NC(C)=C1c1nc2ccccc2s1` (stereo not shown) [Example 12, 5-(1,3-Benzothiazol-2-yl)-4-(4-cyano-2-methoxyphenyl)-2,6-dimethyl-1,4-dihydropyridine-3-carbonitrile], 7.13.
For `CC1=C(C#N)C(c2cccc3ncc(C)cc23)C(c2nc(C)cs2)=C(C)N1` (stereo not shown) [Example 18, 2,6-Dimethyl-4-(3-methylquinolin-5-yl)-5-(4-methyl-1,3-thiazol-2-yl)-1,4-dihydropyridine-3-carbonitrile], the pIC50 is 6.56. Compared with the last compound, the pIC50 is 0.57 log units lower.
`CCc1cnc(C2=C(C)NC(C)=C(C#N)C2c2ccc(C#N)cc2OC)s1` (stereo not shown) [Example 23, 4-(4-Cyano-2-methoxyphenyl)-5-(5-ethyl-1,3-thiazol-2-yl)-2,6-dimethyl-1,4-dihydropyridine-3-carbonitrile] had a pIC50 of 7.74. Against the preceding compound, the pIC50 is 1.18 log units higher.
To `COc1cc(C#N)ccc1C1C(C#N)=C(C)NC(C)=C1c1nnc(C)s1` (stereo not shown) [Example 24, 4-(4-Cyano-2-methoxyphenyl)-2,6-dimethyl-5-(5-methyl-1,3,4-thiadiazol-2-yl)-1,4-dihydropyridine-3-carbonitrile] belongs 6.49.
